Values of other authors, collected in US12296049B2, “Immediate release dosage form” (Kenvue Brands LLC, priority 2019, dated 2025).

Conditions: at lower acidic pH it precipitates

COc1ccc2cc([C@H](C)C(=O)O)ccc2c1 [naproxen sodium]
pH at which the drug stays in solution: above 5.4
